Assay results: patent publication US11672775B2, “Treprostinil prodrugs” (United Therapeutics Corporation, priority 2016, dated 2023)
In brackets after ≈: the same amount, converted by molar mass. Entries after “also recorded” stand apart in the source; their conditions may differ.

How the values were obtained:
[1] = test system: Sprague Dawley rats; test: Rat intraplantar injection model, von Frey test (Example 9); type: in vivo, Sprague Dawley rat; details: for sensitivity to mechanical stimulation vs similar doses of treprostinil: both doses
Procedure: (§1) Male Sprague Dawley rats (n=112) were allocated into 14 groups of 8/group. The study was run in 2 cycles, on consecutive days, 7 groups per cycle. Each cycle was composed of a Saline group, PBS group, which served as the control, and also treprostinil at a dose of 100 μg/mL or 1 μg/mL.
(§2) Animals were administered 0.1 mL of test material by subcutaneous injection into the paw pad (Intraplantar injection) at time zero. Animals were subsequently evaluated for their response to mechanical (von Frey filaments) and thermal stimuli, 15 and 90 minutes post-injection. The von Frey test was conducted prior to the thermal test, which followed immediately within minutes for each animal. In addition, clinical observation scoring of the animal's reaction to injection was conducted. FIG. 16 schematically illustrates the study design.
Mechanical pain sensitivity was tested using the von Frey test, which measures the withdrawal force threshold of the animals. The lower the force applied represents a greater sensitivity to the stimulus. The von Frey test was performed 15 and 90 minutes post-Test Item injection.

[2] = test system: Sprague Dawley rats; test: Rat intraplantar injection model, clinical observation score (Example 9); type: in vivo, Sprague Dawley rat; details: for clinical score: 15 min; for clinical score vs similar doses of treprostinil: both doses
Procedure: as §1, §2
A Clinical observation score was assigned by assessing for redness, swelling and paw placement.

[3] = Equilibrium solubility in vehicle; type: physicochemical; details: 20 mM sodium phosphate dibasic with 125 mM sodium chloride; for solubility thermodynamic at 23 h: read-out: Equilibrium solubility, T0 hours Concentration; for solubility thermodynamic at 24 h: read-out: Equilibrium solubility, T24 hours Concentration; for solubility thermodynamic at 72 h: read-out: Equilibrium solubility, T72 hours Concentration
Procedure: (§3) Each prodrug was dissolved in a vehicle containing 20 mM sodium phosphate dibasic with 125 mM sodium chloride. Prodrugs were prepared at saturation concentrations by weighing 15-30 mg of prodrug in to a 4 mL clear glass vial and dissolving in an appropriate volume of vehicle (0.5-1.0 mL) to achieve a nominal saturation concentration of 30 mg/mL. The solutions were mixed for 23 hours on a rotating mixer. […] The resultant supernatant solutions were isolated from undissolved prodrug by centrifugation at 15000 RPM for 15 min. Supernatants were transferred to clear glass vials and stored at ambient temperature. […] The resultant samples were assayed against treprostinil to determine prodrug concentration. At each testing interval (0, 24, 72 hours) the supernatant was assayed for prodrug concentration and purity by area %.

[4] = Solution stability in vehicle (UPLC area %); type: physicochemical; details: for T0 Residual Treprostinil / Solution stability, T0 Purity: 20 mM sodium phosphate dibasic with 125 mM sodium chloride; for Solution stability, T0 Purity: ambient; for T24 Residual Treprostinil / T72 Residual Treprostinil / Solution stability, T24 hours Purity / Solution stability, T72 hours Purity: same vehicle
Procedure: as §3

[5] = Stability in 200 mM potassium phosphate buffer (pH 7.4); type: physicochemical; details: 1 μM
Procedure: According to the earlier aqueous solution stability study, all prodrugs are stable in 20 mM Sodium Phosphate dibasic with 125 mM NaCl at saturation concentrations (3-30 mg/ml). Also, in the method development work, it was also observed that the most unstable prodrugs III, IV and XIV were stable in 200 mM potassium phosphate buffer (pH 7.4) at a low concentration of 1 μM.

[6] = test system: Sprague Dawley rats; test: Rat intraplantar injection model, thermal pain sensitivity (Example 9); type: in vivo, Sprague Dawley rat; details: both doses (1 and 100 μg/mL); both time points
Procedure: as §1, §2
The sensitivity of animals to a thermal pain stimulus was assessed immediately following the von Frey test. The time until withdrawal of the right-injected leg from a heat source was measured, and the lower (faster) the time of response represents a greater sensitivity to the stimulus. The test was performed 15 and 90 minutes post-Test Item injection.

[7] = only the 1 μg/mL dose, both time points
[8] = 100 μg/mL (cycle 1), 90 minutes post-injection
[9] = 1 μg/mL or 100 μg/mL, 15 and 90 minutes post-injection
[10] = aqueous buffer, thermodynamic from solid, T0 hours
[11] = aqueous buffer, thermodynamic from solid, T24 hours
[12] = aqueous buffer, thermodynamic from solid, T72 hours

CCCCC[C@H](O)CC[C@@H]1[C@H]2Cc3cccc(OCC(=O)O)c3C[C@H]2C[C@H]1OC(=O)N(C)C [Prodrug I, treprostinil ring carbamate]
von Frey withdrawal force threshold vs PBS-treated group ([1]; 1 μg/mL, both time points post-injection): no statistically significant difference
von Frey withdrawal force threshold vs PBS-treated group ([1]; 100 μg/mL, 15 minutes post-injection): no statistically significant difference
von Frey withdrawal force threshold vs PBS-treated group ([1]; 100 μg/mL, 90 minutes post-injection): statistically significant increased sensitivity
sensitivity to mechanical stimulation vs similar dose of treprostinil [1, 7]: reduced sensitivity
clinical score ([2]; 100 μg/mL (cycle 1)): non-zero
clinical score vs PBS group [2, 8]: non-zero; also recorded: statistically significant increase in the clinical score
clinical score vs similar dose of treprostinil [2, 7]: reduced clinical score

CCCCC[C@@H](CC[C@@H]1[C@H]2Cc3cccc(OCC(=O)O)c3C[C@H]2C[C@H]1O)OC(=O)N(C)C [Prodrug II, treprostinil side-chain carbamate]
von Frey withdrawal force threshold vs PBS-treated group [1, 9]: no statistically significant difference
sensitivity to mechanical stimulation vs similar doses of treprostinil ([1]; both time points): statistically significant reduced sensitivity
clinical score ([2]; 100 μg/mL (cycle 1)): non-zero
clinical score vs PBS group [2, 8]: non-zero
clinical score vs PBS group ([2]; 100 μg/mL, both time points): not statistically significantly different
clinical score vs similar doses of treprostinil ([2]; both time points): reduced clinical score

CCCCC[C@H](O)CC[C@@H]1[C@H]2Cc3cccc(OCC(=O)O)c3C[C@H]2C[C@H]1OC(=O)OC [Prodrug III, cyclopentyl methyl carbonate of treprostinil]
solubility thermodynamic at 23 h [3, 10]: 6100 µg/mL (≈ 13.6 mM)
solubility thermodynamic at 24 h [3, 11]: 6000 µg/mL (≈ 13.4 mM)
solubility thermodynamic at 72 h [3, 12]: 6200 µg/mL (≈ 13.8 mM)
T0 Residual Treprostinil [4]: 0.15 % Area
Solution stability, T0 Purity [4]: 94.48 % Area
T24 Residual Treprostinil [4]: 0.14 % Area
T72 Residual Treprostinil [4]: 0.15 % Area
Solution stability, T24 hours Purity [4]: 94.31 % Area
Solution stability, T72 hours Purity [4]: 94.61 % Area
stability in buffer [5]: stable

CCCCC[C@H](O)CC[C@@H]1[C@H]2Cc3cccc(OCC(=O)N[C@@H](C)C(=O)O)c3C[C@H]2C[C@H]1O [Prodrug X, treprostinil alanine amide]
solubility thermodynamic at 23 h [3, 10]: 10000 µg/mL (≈ 21.7 mM)
solubility thermodynamic at 24 h [3, 11]: 10600 µg/mL (≈ 23 mM)
solubility thermodynamic at 72 h [3, 12]: 11300 µg/mL (≈ 24.5 mM)
T0 Residual Treprostinil [4]: 0.08 % Area
Solution stability, T0 Purity [4]: 96.59 % Area
T24 Residual Treprostinil [4]: 0.08 % Area
T72 Residual Treprostinil [4]: 0.08 % Area
Solution stability, T24 hours Purity [4]: 96.32 % Area
Solution stability, T72 hours Purity [4]: 96.54 % Area

CCCCC[C@H](O)CC[C@@H]1[C@H]2Cc3cccc(OCC(=O)NC(C(=O)O)C(C)C)c3C[C@H]2C[C@H]1O (stereo partly drawn) [Prodrug XI, treprostinil valine amide]
solubility thermodynamic at 23 h [3, 10]: 11500 µg/mL (≈ 23.5 mM)
solubility thermodynamic at 24 h [3, 11]: 11300 µg/mL (≈ 23.1 mM)
solubility thermodynamic at 72 h [3, 12]: 11500 µg/mL (≈ 23.5 mM)
Solution stability, T0 Purity [4]: 99.49 % Area
Solution stability, T24 hours Purity [4]: 99.39 % Area
Solution stability, T72 hours Purity [4]: 98.92 % Area

CCCCC[C@H](O)CC[C@@H]1[C@H]2Cc3cccc(OCC(=O)NC(CC(=O)O)C(=O)O)c3C[C@H]2C[C@H]1O (stereo partly drawn) [Prodrug XII, treprostinil aspartic acid amide]
solubility thermodynamic at 23 h [3, 10]: 7400 µg/mL (≈ 14.6 mM)
solubility thermodynamic at 24 h [3, 11]: 7500 µg/mL (≈ 14.8 mM)
solubility thermodynamic at 72 h [3, 12]: 7400 µg/mL (≈ 14.6 mM)
Solution stability, T0 Purity [4]: 98.70 % Area
Solution stability, T24 hours Purity [4]: 98.68 % Area
Solution stability, T72 hours Purity [4]: 98.58 % Area

CCCCC[C@H](O)CC[C@@H]1[C@H]2Cc3cccc(OCC(=O)N[C@@H](CO)C(=O)O)c3C[C@H]2C[C@H]1O [Prodrug XIII, treprostinil serine amide]
solubility thermodynamic at 23 h [3, 10]: 3200 µg/mL (≈ 6.7 mM)
solubility thermodynamic at 24 h [3, 11]: 3700 µg/mL (≈ 7.75 mM)
solubility thermodynamic at 72 h [3, 12]: 3800 µg/mL (≈ 7.96 mM)
solubility at 23 h ([3]; aqueous buffer, thermodynamic from solid, approximate, read-out: Solubility in the selected vehicle): ~3500 µg/mL (≈ 7.33 mM)
Solution stability, T0 Purity [4]: 97.66 % Area
Solution stability, T24 hours Purity [4]: 97.81 % Area
Solution stability, T72 hours Purity [4]: 97.58 % Area

treprostinil monomethyl carbamate [Prodrug VIII]
Equilibrium solubility, T0 hours Concentration ([3]; T0 hours): 11000 µg/mL
Equilibrium solubility, T24 hours Concentration ([3]; T24 hours): 10500 µg/mL
Equilibrium solubility, T72 hours Concentration ([3]; T72 hours): 10900 µg/mL
T0 Residual Treprostinil [4]: 0.11 % Area
Solution stability, T0 Purity [4]: 96.41 % Area
T24 Residual Treprostinil [4]: 0.11 % Area
T72 Residual Treprostinil [4]: 0.15 % Area
Solution stability, T24 hours Purity [4]: 96.40 % Area
Solution stability, T72 hours Purity [4]: 96.34 % Area
von Frey withdrawal force threshold vs PBS-treated group [1, 9]: no statistically significant difference
sensitivity to mechanical stimulation vs similar doses of treprostinil ([1]; both time points): statistically significant reduced sensitivity
thermal paw withdrawal time vs PBS group [6]: trend toward reduction in the time of response
clinical score ([2]; 100 μg/mL (cycle 1)): non-zero
clinical score vs PBS group ([2]; 100 μg/mL, both time points): not statistically significantly different
clinical score vs similar doses of treprostinil ([2]; both time points): reduced clinical score
